Where two headings read alike, the source gives them in different places.
Key:
[1] = system: NF-κB; assay: NF-κB assay: THP1-NF-κB-LUC cells, LPS-stimulated secreted luciferase; type: cell-based; conditions: THP1-NF-κB-LUC cells, read-out: IC50 (NF-κB assay)
In short: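 THP1-NF-κB-LUC cells (25k/well) were pretreated with compounds for 2 h, then stimulated with LPS (10 ng/mL) for 18 h. Secreted luciferase was measured and normalized to vehicle, and IC50 was fitted from the concentration series.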

[2] = system: TNF release; assay: TNF assay: TNF release from LPS-stimulated human PBMCs (TNF ELISA); type: cell-based; conditions: PBMC, read-out: IC50 (TNF assay)
In short: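 Human PBMCs at 10k/well pretreated with compound dilutions 2 h, then stimulated with LPS (10 ng/mL) for 18 h. TNF in supernatants quantified by ELISA; IC50 for inhibition of TNF release fitted from concentration–response.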

[3] = compounds 2 hours before LPS (10 ng/mL) for 18 hours, secreted luciferase
[4] = human PBMCs, compounds 2 hours before LPS (10 ng/ml) for 18 hours, supernatant TNF ELISA
[5] = LPS-stimulated human PBMCs, TNF ELISA

SMILES: CCS(=O)(=O)c1cc2c(c(S(=O)(=O)Nc3ccc(F)cc3F)c1)OCC(=O)N2 [BC19545]
- IC50 [1, 3]: < 100 nM
- IC50 [2, 4]: > 10000 nM

SMILES: CCS(=O)(=O)c1cc2c(c(S(=O)(=O)Nc3ccc(C)cc3)c1)OCC(=O)N2 [BC19546]
- IC50 [1, 3]: < 100 nM
- IC50 [2, 4]: > 10000 nM

SMILES: CCS(=O)(=O)c1cc2c(c(S(=O)(=O)Nc3ccc(OC)c(Cl)c3)c1)OCC(=O)N2 [BC19547]
- IC50 [1, 3]: 100 to 1000 nM
- IC50 [2, 4]: > 10000 nM

SMILES: CCS(=O)(=O)c1cc2c(c(S(=O)(=O)Nc3ccc(C#N)cc3)c1)OCC(=O)N2 [BC19548]
- IC50 [1, 3]: < 100 nM
- IC50 [2, 4]: > 10000 nM

SMILES: O=C1NCCOc2c1cc(Br)cc2S(=O)(=O)Nc1ccc(F)cc1 [BC19549]
- IC50 ([1]; LPS-stimulated): 1000 to 10000 nM
- IC50 [2, 5]: > 10000 nM

SMILES: O=C1NCCOc2c1cc(Br)cc2S(=O)(=O)Nc1ccc(OC(F)(F)F)cc1 [BC19550]
- IC50 ([1]; LPS-stimulated): < 100 nM
- IC50 [2, 5]: > 10000 nM

SMILES: O=C1NCCOc2c1cc(Br)cc2S(=O)(=O)Nc1ccc(F)c(F)c1 [BC19551]
- IC50 ([1]; LPS-stimulated): 100 to 1000 nM
- IC50 [2, 5]: > 10000 nM

SMILES: Cc1ccc(NS(=O)(=O)c2cc(Br)cc3c2OCCNC3=O)cc1F [BC19552]
- IC50 ([1]; LPS-stimulated): 100 to 1000 nM
- IC50 [2, 5]: > 10000 nM

SMILES: O=C1NCCOc2c1cc(Br)cc2S(=O)(=O)Nc1ccccc1 [BC19553]
- IC50 ([1]; LPS-stimulated): 1000 to 10000 nM
- IC50 [2, 5]: > 10000 nM

SMILES: COCCCNS(=O)(=O)c1ccc2nc(-c3ccc(F)cc3)c(-c3ccc(F)cc3)nc2c1 [BC19554]
- IC50 ([1]; LPS-stimulated): < 100 nM
- IC50 [2, 5]: > 10000 nM

SMILES: CN(C)CCNS(=O)(=O)c1ccc2nc(-c3ccc(F)cc3)c(-c3ccc(F)cc3)nc2c1 [BC19555]
- IC50 ([1]; LPS-stimulated): < 100 nM
- IC50 [2, 5]: 1000 to 10000 nM

SMILES: CCNS(=O)(=O)c1ccc2nc(-c3ccc(F)cc3)c(-c3ccc(F)cc3)nc2c1 [BC19556]
- IC50 ([1]; LPS-stimulated): 100 to 1000 nM
- IC50 [2, 5]: > 10000 nM

SMILES: O=S(=O)(NCc1cccnc1)c1ccc2nc(-c3ccc(F)cc3)c(-c3ccc(F)cc3)nc2c1 [BC19557]
- IC50 ([1]; LPS-stimulated): < 100 nM
- IC50 [2, 5]: > 10000 nM

SMILES: O=S(=O)(NCc1ccncc1)c1ccc2nc(-c3ccc(F)cc3)c(-c3ccc(F)cc3)nc2c1 [BC19558]
- IC50 ([1]; LPS-stimulated): 100 to 1000 nM
- IC50 [2, 5]: > 10000 nM

SMILES: O=S(=O)(NCc1ccccn1)c1ccc2nc(-c3ccc(F)cc3)c(-c3ccc(F)cc3)nc2c1 [BC19559]
- IC50 ([1]; LPS-stimulated): < 100 nM
- IC50 [2, 5]: > 10000 nM

SMILES: O=C1CCCN1CCCNS(=O)(=O)c1ccc2nc(-c3ccc(F)cc3)c(-c3ccc(F)cc3)nc2c1 [BC19560]
- IC50 ([1]; LPS-stimulated): < 100 nM
- IC50 [2, 5]: > 10000 nM

SMILES: Cc1ccc(-c2nc3ccc(S(=O)(=O)NCCCN4CCN(C)CC4)cc3nc2-c2ccc(C)cc2)cc1 [BC19561]
- IC50 ([1]; LPS-stimulated): 100 to 1000 nM
- IC50 [2, 5]: > 10000 nM

SMILES: CN(C)CCCNS(=O)(=O)c1ccc2nc(-c3ccc(F)cc3)c(-c3ccc(F)cc3)nc2c1 [BC19562]
- IC50 ([1]; LPS-stimulated): 100 to 1000 nM
- IC50 [2, 5]: 1000 to 10000 nM

SMILES: CCNC(=O)Nc1ccc2nc(-c3ccc(F)cc3)c(-c3ccc(F)cc3)nc2c1 [BC19563]
- IC50 ([1]; LPS-stimulated): < 100 nM
- IC50 [2, 5]: > 10000 nM

SMILES: CN(C)CCNC(=O)Nc1ccc2nc(-c3ccc(F)cc3)c(-c3ccc(F)cc3)nc2c1 [BC19564]
- IC50 ([1]; LPS-stimulated): < 100 nM
- IC50 [2, 5]: 1000 to 10000 nM

SMILES: COCCNC(=O)Nc1ccc2nc(-c3ccc(F)cc3)c(-c3ccc(F)cc3)nc2c1 [BC19565]
- IC50 ([1]; LPS-stimulated): < 100 nM
- IC50 [2, 5]: > 10000 nM

SMILES: O=C(NCCO)Nc1ccc2nc(-c3ccc(F)cc3)c(-c3ccc(F)cc3)nc2c1 [BC19566]
- IC50 ([1]; LPS-stimulated): < 100 nM
- IC50 [2, 5]: > 10000 nM

SMILES: O=C(NCCN1CCOCC1)Nc1ccc2nc(-c3ccc(F)cc3)c(-c3ccc(F)cc3)nc2c1 [BC19567]
- IC50 ([1]; LPS-stimulated): 100 to 1000 nM
- IC50 [2, 5]: 1000 to 10000 nM

SMILES: O=C(Nc1ccc2nc(-c3ccc(F)cc3)c(-c3ccc(F)cc3)nc2c1)NC1CC1 [BC19568]
- IC50 ([1]; LPS-stimulated): 100 to 1000 nM
- IC50 [2, 5]: > 10000 nM

SMILES: O=C(NCC1CC1)Nc1ccc2nc(-c3ccc(F)cc3)c(-c3ccc(F)cc3)nc2c1 [BC19569]
- IC50 ([1]; LPS-stimulated): 100 to 1000 nM
- IC50 [2, 5]: > 10000 nM

SMILES: O=C(NCc1ccccn1)Nc1ccc2nc(-c3ccc(F)cc3)c(-c3ccc(F)cc3)nc2c1 [BC19570]
- IC50 ([1]; LPS-stimulated): 100 to 1000 nM
- IC50 [2, 5]: > 10000 nM

SMILES: O=C(NCc1cccnc1)Nc1ccc2nc(-c3ccc(F)cc3)c(-c3ccc(F)cc3)nc2c1 [BC19571]
- IC50 ([1]; LPS-stimulated): 100 to 1000 nM
- IC50 [2, 5]: 1000 to 10000 nM

SMILES: O=C(NCc1ccncc1)Nc1ccc2nc(-c3ccc(F)cc3)c(-c3ccc(F)cc3)nc2c1 [BC19572]
- IC50 ([1]; LPS-stimulated): 100 to 1000 nM
- IC50 [2, 5]: > 10000 nM

SMILES: CN(C)CCCNC(=O)Nc1ccc2nc(-c3ccc(F)cc3)c(-c3ccc(F)cc3)nc2c1 [BC19573]
- IC50 ([1]; LPS-stimulated): 100 to 1000 nM
- IC50 [2, 5]: 100 to 1000 nM

SMILES: COCCCNC(=O)Nc1ccc2nc(-c3ccc(F)cc3)c(-c3ccc(F)cc3)nc2c1 [BC19574]
- IC50 ([1]; LPS-stimulated): 100 to 1000 nM
- IC50 [2, 5]: > 10000 nM

SMILES: O=C(NCCCO)Nc1ccc2nc(-c3ccc(F)cc3)c(-c3ccc(F)cc3)nc2c1 [BC19575]
- IC50 ([1]; LPS-stimulated): 100 to 1000 nM
- IC50 [2, 5]: > 10000 nM

SMILES: O=C(NCCCN1CCOCC1)Nc1ccc2nc(-c3ccc(F)cc3)c(-c3ccc(F)cc3)nc2c1 [BC19576]
- IC50 ([1]; LPS-stimulated): 100 to 1000 nM
- IC50 [2, 5]: > 10000 nM

SMILES: CN1CCN(Cc2ccc3nc(-c4ccc(F)cc4)c(-c4ccc(F)cc4)nc3c2)CC1 [BC19577]
- IC50 ([1]; LPS-stimulated): 100 to 1000 nM
- IC50 [2, 5]: > 10000 nM
